Experimental data: patent US9522910B2, “Protein kinase inhibitors (variants), use thereof in treating oncological diseases and a pharmaceutical composition based thereon” (Obshchestvo s ogranichennoy otvetstvennostyou “Fusion …, priority 2011, dated 2016)

Legend:
[1] = test system: K562 human chronic myelogenous leukemia cells; experiment: Antiproliferative activity on K562 cells (MTT); type: cell-based; conditions: K562, 72 h, compound concentration that causes 2-times reduction of viable cells, 3 days
Description: Moreover, antiproliferative activity of the compounds of the present invention can be studied on K562 human chronic myelogenous leukemia cells.
Human myelogenous leukemia K562 cells K562 were cultivated in RPMI 1640 growth medium. K562 cells were transferred to 96-well plated in duplicated (final concentration 2×10^4 cells/ml) and testing compound solution in growth medium was added at different concentrations (final volume is 100 μl per well). Solid compounds were first dissolved in DMSO, then the solution was diluted with DMSO to necessary concentration, mixed with equal volume of growth medium and was transferred to cell plates. The final compound concentrations of compounds was 0.5 nM to 10 μM. DMSO at same percentage is used as control. After compound was incubated with cells for 3 days, the numbers of active cells are measured. It was achieved by removing old medium, addition of 100 μl of fresh medium and 20 μl MIT solution containing 5 mg/ml PBS. Plates was incubated for 2 h at 37° C., then 100 μl DMSO was added at each well and stirred for 1 min. Then the absorbance was measured at 570 nm and percent of proliferation inhibition related to the control (without testing compounds) was determined.

Abl (T315I) = Abl (T315I) (Homo sapiens (Human), UniProt P00519, T315I); experiment: Kinase inhibition assay (33P transfer to plate-bound substrate), Abl (T315I); type: biochemical; conditions: compound concentration that causes 2-times reduction of kinase enzymatic activity
From the text: (§1) Kinases as either kinase domain or full construct fused to glutathione S-transferase (GST) or poly-Histidine tagged fusion proteins were expressed in baculovrius-infected insect cells (e.g. Sf21) or in E. Coli. They are purified to near homogeneity by affinity chromatography as previously described (Lehr et al., Production, purification and characterization of non-myristylated human T-cell protein tyrosine kinase in a baculovirus expression system, Gene, 1996; 169(2), 275-279; Gish et al., Bacterial expression, purification and preliminary kinetic description of the kinase domain of v-fps, Protein Eng. 8, 6, 609-614). In some instances, kinases are co-expressed or mixed with purified or partially purified regulatory polypeptides prior to measurement of activity.
(§2) Kinase activity and inhibition was measured by established protocols (see e.g. Braunwalder et al., A Solid-Phase Assay for the Determination of Protein Tyrosine Kinase Activity of c-src Using Scintillating Microtitration Plates, Anal Biochem. 234, 1, 23-26). In such cases, the transfer of ^33PO4 from ATP to the synthetic substrates poly(Glu, Tyr) 4:1 or poly(Arg, Ser) 3:1 attached to the bioactive surface of microtiter plates is taken as a measure of enzyme activity. After an incubation period, the amount of phosphate transferred is measured by first washing the plate with 0.5% phosphoric acid, adding liquid scintillant, and then counting in a liquid scintillation detector. The IC50 is determined by the concentration of compound that causes a 50% reduction in the amount of ^33P incorporated onto the substrate bound to the plate.

Abl = Abl (Homo sapiens (Human), UniProt P00519); experiment: Kinase inhibition assay (33P transfer to plate-bound substrate), Abl; type: biochemical; conditions: compound concentration that causes 2-times reduction of kinase enzymatic activity
From the text: as §1, §2

[2] = in vivo; cited from earlier work
[3] = test system: Ba/F3 cells expressing either native or mutant (T315I) Bcr-Abl kinase; experiment: Animal model of chronic myelogenous leukemia (Ba/F3 Bcr-Abl tumors in nude balb/c mice); type: in vivo, mouse; conditions: 30 mg/kg, oral gavage once daily, 10 days; ratio of mean tumor volume in therapeutic and control groups
Description: Ba/F3 cells expressing either native or mutant (T315I) Bcr-Abl kinase, were inoculated in the right flank of nude balb/c mouse (100 μl of cell suspension in serum-free medium, 3×10^6 cells/ml). Mice were randomly assigned to the groups upon tumor volume of ˜500 mm^3. Once daily vehicle (0.5% methylcellulose I in water) was given using oral gavage to the control group, and substance suspension was given to therapeutic group during 10 days. In a typical experiment malignant cells (e.g., K562 cells, or Ba/F3 cells, expressing native of mutated Bcr-Abl kinase) are injected to mouse with reduced immunity (e.g. nude or SCID mice). Tumor volume (mm^3) was calculated as follows: V=L×W^2×0.5, where L—tumor length in mm, W—width in mm. Ratio of the mean tumor volume in therapeutic and control groups (% T/C) was used to evaluate efficacy of tumor growth inhibition. Obtained data was subjected to statistical reliability Dunnet test. Efficacies of tested compounds in 30 mg/kg dose are depicted in Table 2.

MV4-11 cells = experiment: Animal model of acute myelogenous leukemia (MV4-11 tumors in SCID mice); type: in vivo, mouse; conditions: 30 mg/kg; end of the therapy (20 days); ratio of mean tumor volume in therapeutic and control groups
Description: MV4-11 cells (1×10^7 in serum-free medium) were subcutaneously injected in right flank of SCID female mice. When tumor volume achieved ˜200 mm^3 mice were separated into two groups: control and therapeutic. Control group mice received 0.3 ml of 0.5% methylcellulose solution, therapeutic group received 0.3 ml of 0.5% methylcellulose with suspended therapeutic compound. Tumor volume (mm^3) was calculated as follows: V=L×W^2×0.5, where L—tumor length in mm, W—width in mm. Ratio of the mean tumor volume in therapeutic and control groups (% T/C) on the end of the therapy (20 days) was used to evaluate efficacy of tumor growth inhibition. Obtained data was subjected to statistical reliability Dunnet test. Efficacies of tested compounds in 30 mg/kg dose are depicted in Table 3.

HCT116 cells = experiment: Animal model of solid intestine tumors (HCT116 tumors in SCID mice); type: in vivo, mouse; conditions: 30 mg/kg; end of the therapy (20 days); ratio of mean tumor volume in therapeutic and control groups
Description: 200 μl of HCT116 cells (2.5×10^7 cells/ml) were subcutaneously injected in right flank of SCID mice. When tumor volume achieved ˜200 mm^3 mice were randomized and separated into two groups: control and therapeutic. Control group mice received 0.3 ml of 0.5% methylcellulose solution, therapeutic group received 0.5% methylcellulose with suspended therapeutic compound (30 mg/kg). Twice a week animals animal weight, toxic effects and tumor volume were measured. Experiment was stopped upon tumor reached volume of 1200 mm3 of when animal lost 10% of body weight, or 20% of body weight upon 2 consecutive weightings. Ratio of the mean tumor volume in therapeutic and control groups (% T/C) was used to evaluate efficacy of tumor growth inhibition upon the end of the therapy (20 days). Obtained data was subjected to statistical reliability Dunnet test. Efficacies of tested compounds in 30 mg/kg dose are depicted in Table 4.

A549 cells = experiment: Animal model of non-small cell lung cancer (A549 tumors in nude mice); type: in vivo, mouse; conditions: 30 mg/kg, oral gavage; end of the therapy (20 days); ratio of mean tumor volume in therapeutic and control groups
Description: Male nude mice were used for this experiment. A549 cells (1×10^7) in 0.2 ml of Matrigel (BD Pharmingen) solution were injected in left mice leg upon ketamine-xylazine anesthesia. After a week of cell inoculation mice were separated into control and therapeutic groups. Control group mice received 0.3 ml of 0.5% methylcellulose solution, therapeutic group received 0.3 ml of 0.5% methylcellulose with suspended therapeutic compound (30 mg/kg). Tumor volume (mm^3) was calculated as follows: V=L×W^2×0.5. Compounds were administered using oral gavage. Treatment continued for 20 days. Ratio of the mean tumor volume in therapeutic and control groups (% T/C) was used to evaluate efficacy of tumor growth inhibition upon the end of the therapy (20 days). Obtained data was subjected to statistical reliability Dunnet test. Efficacies of tested compounds in 30 mg/kg dose are depicted in Table 5.

Cc1ccc(C(=O)Nc2ccc(CN3CCN(C)CC3)c(C(F)(F)F)c2)cc1C#Cc1nnc2cc(C(=O)O)ccn12
IC50 [1]: < 0.1 µM | IC50 (Abl (T315I)): < 0.02 µM | IC50 (Abl): < 0.02 µM

Cc1ccc(C(=O)Nc2ccc(CN3CCN(C)CC3)c(C(F)(F)F)c2)cc1C#Cc1nnc2cc(C(N)=O)ccn12
IC50 [1]: < 0.1 µM | IC50 (Abl (T315I)): < 0.02 µM | IC50 (Abl): < 0.02 µM

Cc1ccc(C(=O)Nc2ccc(CN3CCN(C)CC3)c(C(F)(F)F)c2)cc1C#Cc1nnc2cccnn12
IC50 [1]: < 0.1 µM | IC50 (Abl (T315I)): < 0.02 µM | IC50 (Abl): < 0.02 µM

Cc1ccc(C(=O)Nc2ccc(CN3CCN(C)CC3)c(C(F)(F)F)c2)cc1C#Cc1nnc2cc(C(=O)O)cnn12
IC50 [1]: < 0.1 µM | IC50 (Abl (T315I)): < 0.02 µM | IC50 (Abl): < 0.02 µM

Cc1ccc(C(=O)Nc2ccc(CN3CCN(C)CC3)c(C(F)(F)F)c2)cc1C#Cn1cnc2cc(C(=O)O)ccc21
IC50 [1]: < 0.1 µM | IC50 (Abl (T315I)): < 0.02 µM | IC50 (Abl): < 0.02 µM

CN1CCN(Cc2ccc(NC(=O)c3ccc(F)c(C#Cc4nnc5ccccn45)c3)cc2C(F)(F)F)CC1
IC50 [1]: < 0.1 µM | IC50 (Abl (T315I)): < 0.02 µM | IC50 (Abl): < 0.02 µM

Cc1nc(Nc2ncc(C(=O)Nc3c(C)cccc3Cl)s2)cc(N2CCN(CCO)CC2)n1 [dasatinib]
bioavailability [2]: 14-34%

Cc1ccc(C(=O)Nc2ccc(CN3CCN(C)CC3)c(C(F)(F)F)c2)cc1C#Cc1nnc2ccccn12 [drawing 113]
IC50 [1]: < 0.1 µM | IC50 (Abl (T315I)): < 0.02 µM | IC50 (Abl): < 0.02 µM

Cc1ccc(C(=O)Nc2ccc(CN3CCN(C)CC3)c(C(F)(F)F)c2)cc1C#Cc1nnc2ccccn12 [drawing 121]
% T/C [3]: <40%

Cc1ccc(C(=O)Nc2ccc(CN3CCN(C)CC3)c(C(F)(F)F)c2)cc1C#Cc1nnc2cccc(Cl)n12 [drawing 122]
% T/C [3]: <40%

Cc1ccc(C(=O)Nc2ccc(CN3CC[C@@H](N(C)C)C3)c(C(F)(F)F)c2)cc1C#Cn1cnc2ccccc21 [drawing 123]
% T/C [3]: <40%

Cc1ccc(C(=O)Nc2ccc(CN3CC[C@@H](N(C)C)C3)c(C(F)(F)F)n2)cc1C#Cn1cnc2ccccc21 [drawing 124]
% T/C [3]: <40%

Cc1ccc(C(=O)Nc2ccc(CN3CCN(C)CC3)c(C(F)(F)F)c2)cc1C#Cc1nnc2cc(F)ccn12 [drawing 125]
% T/C [3]: <40%

Cc1ccc2nnc(C#Cc3cc(C(=O)Nc4ccc(CN5CCN(C)CC5)c(C(F)(F)F)c4)ccc3C)n2n1 [drawing 126]
% T/C [3]: <40%

Cc1ccc(C(=O)Nc2ccc(CN3CCN(C)CC3)c(C(F)(F)F)c2)cc1C#Cc1nnc2ccccn12 [drawing 127]
% T/C (MV4-11 cells): <40%

Cc1ccc(C(=O)Nc2ccc(CN3CCN(C)CC3)c(C(F)(F)F)c2)cc1C#Cc1nnc2cccc(Cl)n12 [drawing 128]
% T/C (MV4-11 cells): <40%

Cc1ccc(C(=O)Nc2ccc(CN3CC[C@@H](N(C)C)C3)c(C(F)(F)F)c2)cc1C#Cn1cnc2ccccc21 [drawing 129]
% T/C (MV4-11 cells): <40%

Cc1ccc(C(=O)Nc2ccc(CN3CC[C@@H](N(C)C)C3)c(C(F)(F)F)n2)cc1C#Cn1cnc2ccccc21 [drawing 130]
% T/C (MV4-11 cells): <40%

Cc1ccc(C(=O)Nc2ccc(CN3CCN(C)CC3)c(C(F)(F)F)c2)cc1C#Cc1nnc2cc(F)ccn12 [drawing 131]
% T/C (MV4-11 cells): <40%

Cc1ccc2nnc(C#Cc3cc(C(=O)Nc4ccc(CN5CCN(C)CC5)c(C(F)(F)F)c4)ccc3C)n2n1 [drawing 132]
% T/C (MV4-11 cells): <40%

Cc1ccc(C(=O)Nc2ccc(CN3CCN(C)CC3)c(C(F)(F)F)c2)cc1C#Cc1nnc2ccccn12 [drawing 133]
% T/C (HCT116 cells): <40%

Cc1ccc(C(=O)Nc2ccc(CN3CCN(C)CC3)c(C(F)(F)F)c2)cc1C#Cc1nnc2cccc(Cl)n12 [drawing 134]
% T/C (HCT116 cells): <40%

Cc1ccc(C(=O)Nc2ccc(CN3CC[C@@H](N(C)C)C3)c(C(F)(F)F)c2)cc1C#Cn1cnc2ccccc21 [drawing 135]
% T/C (HCT116 cells): <40%

Cc1ccc(C(=O)Nc2ccc(CN3CC[C@@H](N(C)C)C3)c(C(F)(F)F)n2)cc1C#Cn1cnc2ccccc21 [drawing 136]
% T/C (HCT116 cells): <40%

Cc1ccc(C(=O)Nc2ccc(CN3CCN(C)CC3)c(C(F)(F)F)c2)cc1C#Cc1nnc2cc(F)ccn12 [drawing 137]
% T/C (HCT116 cells): <40%

Cc1ccc2nnc(C#Cc3cc(C(=O)Nc4ccc(CN5CCN(C)CC5)c(C(F)(F)F)c4)ccc3C)n2n1 [drawing 138]
% T/C (HCT116 cells): <40%

Cc1ccc(C(=O)Nc2ccc(CN3CCN(C)CC3)c(C(F)(F)F)c2)cc1C#Cc1nnc2ccccn12 [drawing 139]
% T/C (A549 cells): <40%

Cc1ccc(C(=O)Nc2ccc(CN3CCN(C)CC3)c(C(F)(F)F)c2)cc1C#Cc1nnc2cccc(Cl)n12 [drawing 140]
% T/C (A549 cells): <40%

Cc1ccc(C(=O)Nc2ccc(CN3CC[C@@H](N(C)C)C3)c(C(F)(F)F)c2)cc1C#Cn1cnc2ccccc21 [drawing 141]
% T/C (A549 cells): <40%

Cc1ccc(C(=O)Nc2ccc(CN3CC[C@@H](N(C)C)C3)c(C(F)(F)F)n2)cc1C#Cn1cnc2ccccc21 [drawing 142]
% T/C (A549 cells): <40%

Cc1ccc(C(=O)Nc2ccc(CN3CCN(C)CC3)c(C(F)(F)F)c2)cc1C#Cc1nnc2cc(F)ccn12 [drawing 143]
% T/C (A549 cells): <40%

Cc1ccc2nnc(C#Cc3cc(C(=O)Nc4ccc(CN5CCN(C)CC5)c(C(F)(F)F)c4)ccc3C)n2n1 [drawing 144]
% T/C (A549 cells): <40%

Cc1cn(-c2cc(NC(=O)c3ccc(C)c(Nc4nccc(-c5cccnc5)n4)c3)cc(C(F)(F)F)c2)cn1 [nilotinib]
bioavailability [2]: 30%

Cc1ccc(C(=O)Nc2ccc(CN3CCN(C)CC3)c(C(F)(F)F)c2)cc1C#Cc1cnc2cccnn12 [ponatinib]
bioavailability [2]: 20%
